Data published in PubChem BioAssay AID449750 (Broad Institute, 2010).
Several values for one entry are separate records, joined by “and”; a condition that tells them apart may be missing. Equal values may be shown once. Activity calls are given as the source filed them. How the calls were made is not given here.

Experiment: non-covalent RecA intein splicing inhibitors, dose response, biochemical, cell-free, fluorescence, secondary screen (AID 449750)

| SMILES | AC50 |
| --- | --- |
| CCOc1cc(/C=C(/C#N)C(=O)Nc2ccc(O)cc2)cc(Br)c1O | > 38 µM (inactive) |
| CC(C)c1nnc(NC(=O)c2nc(S(=O)(=O)Cc3ccccc3F)ncc2Cl)s1 | > 38 µM (inactive) |
| CNC(=O)c1nnsc1S(=O)(=O)c1ccc(Cl)cc1 | > 38 µM (inactive) |
| CCOC(=O)c1c(CSC(=N)N)n(-c2ccccc2)c2cc(Br)c(OC(C)=O)cc12 | 23.6 µM |
| COc1ccc(C(=O)/C(=C/c2cccs2)c2nc3ccccc3o2)cc1 | > 38 µM (inactive) |
| Cc1ccc(-n2nc(C)c3c2OC(N)=C(C#N)C3c2ccco2)cc1 (stereo unspecified) | 12.9 µM |
| CC(=O)N(C1=C(Cl)C(=O)c2ccccc2C1=O)C1CCCCC1 | 2.79 µM |
| COc1ccc(OC)c(C2C(C#N)=C(N)Oc3c2c(C)nn3-c2cccc(Cl)c2)c1 (stereo unspecified) | 30 µM |
| CC1=NN(Cc2ccccc2)C(=O)C1C(c1ccc(Cl)cc1)C(C#N)C#N (stereo unspecified) | 31 µM |
| O=C(CSc1c2c(nc3cc(Cl)ccc13)CCCC2)NCc1ccco1 | 26.4 µM |
| Cc1ccc(C2=NN(C(=O)CCl)C(c3cccs3)C2)o1 (stereo unspecified) | > 38 µM (inactive) |
| O=C1C(Nc2cccc(O)c2)=C(N2CCCCC2)C(=O)c2ccccc21 | 2.93 µM |
| CC(=O)Nc1ccc(NC(=O)CSc2ncc(C(=O)Nc3ccc(F)cc3)c(=O)n2C)cc1 | > 38 µM (inactive) |
| Oc1[nH]c(=S)sc1C=C1N=c2ccccc2=N1 | > 38 µM (inactive) |
| Cc1ccccc1NC1=C(Cl)C(=O)OC1OC(=O)c1ccco1 (stereo unspecified) | > 38 µM (inactive) |
| c1ccc(Nc2nc(NCc3ccco3)c3ccccc3n2)cc1 | 10.8 µM |
| N#C/C(=C/c1ccc2c(c1)OCO2)C(=O)Nc1ccc(O)cc1 | > 38 µM (inactive) |
| CC(=O)N(C1=C(N2CCOCC2)C(=O)c2ccccc2C1=O)c1ccc(C(=O)O)cc1 | 9.14 µM |
| COc1ccccc1-c1cc(C(F)(F)F)nc(S(=O)(=O)CCCC(=O)N2CCCCC2C)n1 (stereo unspecified) | > 38 µM (inactive) |
| Cn1nc([N+](=O)[O-])c(C(C#N)c2ccccn2)c(Cl)c1=O (stereo unspecified) | > 38 µM (inactive) |
| CS(=O)(=O)C1=NSC2=NC(=O)/C(=C\c3ccc(OC(=O)c4ccco4)cc3)C(=N)N21 | > 38 µM (inactive) |
| O=C(Oc1ccc(N2C(=O)CCC2=O)cc1)c1ccco1 | 0.433 µM |

| SMILES | AC50 |
| --- | --- |
| COc1ccccc1N1C(=O)Cc2ccccc2C1=O | > 38 µM (inactive) |
| CCCc1[nH]nc2c1C(c1ccsc1)C(C#N)=C(N)O2 (stereo unspecified) | > 38 µM (inactive) |
| O=C(Cc1cc(=O)[nH][nH]1)N/N=C/c1c(Cl)cccc1Cl | 16 µM and 23.9 µM |
| CC(=O)Oc1ccc2ccccc2c1C(NC(=O)Cc1ccccc1)c1ccc(Cl)cc1 (stereo unspecified) | 4.04 µM |
| N#Cc1ncc(-c2ccc3c(c2)OCCOCCOCCOCCO3)nc1C#N | > 38 µM (inactive) |
| CCOC(=O)C1Nc2c(F)cc(C)cc2C2c3ccccc3CC12 (stereo unspecified) | 33.7 µM |
| COc1cccc(NC2=C(Cl)C(=O)OC2OC(=O)c2ccco2)c1 (stereo unspecified) | > 38 µM (inactive) |
| COc1cc(NC(C)CCCN)c2ncccc2c1 (stereo unspecified) | 12.3 µM |
| COc1ccc(C(c2c(C)[nH]n(-c3ccccc3)c2=O)c2c(C)[nH]n(-c3ccccc3)c2=O)cc1OC | 1.38 µM |
| Cc1[nH]n(C(N)=S)c(=O)c1C(c1ccccc1)C(C#N)C#N (stereo unspecified) | > 38 µM (inactive) |
| CC1=NN(Cc2ccccc2)C(=O)C1C(c1ccncc1)C(C#N)C#N (stereo unspecified) | > 38 µM (inactive) |
| CC1=NNC(=O)/C1=C\c1cn(-c2ccccc2)nc1-c1cccs1 | 9.64 µM |
| COC(=O)c1cccc(-c2ccc(C(c3c(C)[nH][nH]c3=O)c3c(C)[nH][nH]c3=O)o2)c1 | 3.29 µM |
| O=C(CCl)N1c2ccccc2CCc2ccccc21 | 3.76 µM |
| CCc1ccc(S(=O)(=O)Nc2cc(SCC(=O)O)c(O)c3ccccc23)cc1 | 3.06 µM |
| O=c1cc(C23CC4CC(CC(C4)C2)C3)[nH][nH]1 | > 38 µM (inactive) |
| CCOc1cc(/C=C2/SC(=S)N(Cc3ccccc3)C2=O)ccc1O | > 38 µM (inactive) |
| CCN(C(=O)CSc1ncccc1C(=O)Oc1cccc([N+](=O)[O-])c1)c1cccc(C)c1 | > 38 µM (inactive) |
| COc1ccc(N(C(=O)CCl)C(C(=O)NCCc2ccccc2)c2cccs2)cc1 (stereo unspecified) | 0.958 µM |
| COc1cc(Cc2nccc3cc(OC)c(OC)cc23)c(S(=O)(=O)O)cc1OC | > 38 µM (inactive) |
| COc1ccc(NC(=O)Nc2ccc(O)c3ccccc23)cc1 | 39.3 µM |
| O=C(Nc1ccccc1)NN(C(=O)CCl)c1ccccc1 | 6.12 µM |

| SMILES | AC50 |
| --- | --- |
| Cc1ccc(NC2=C/C(=N\S(=O)(=O)c3cccs3)c3ccccc3C2=O)c(C)c1 | 0.304 µM |
| O=C(Nc1n[nH]c(C(F)(F)F)n1)c1cccs1 | > 38 µM (inactive) |
| CCCc1nn(C)c2c1C(c1cccnc1)C(C#N)=C(N)O2 (stereo unspecified) | > 38 µM (inactive) |
| CCCC(=O)N(C1CC(C)C(C#N)(C#N)C1(C#N)C#N)N(C)C (stereo unspecified) | > 38 µM (inactive) |
| COC(=O)c1ccc(-c2ccc(C(c3c(C)[nH][nH]c3=O)c3c(C)[nH][nH]c3=O)o2)cc1 | 1.6 µM |
| CCCCCC(=O)Cc1cc(O)cc2c1C(=O)Oc1cc(O)c(C(=O)O)c(CCCCC)c1O2 | 6.09 µM |
| N#C[C@H]1[C@H](c2ccccc2)[C@](C#N)(C(=O)c2ccccc2)[C@@H]2C=Cc3ccccc3N21 | > 38 µM (inactive) |
| Cc1ccc(C2C(C#N)=C(N)Oc3nc(-c4ccccc4)[nH]c32)o1 (stereo unspecified) | > 38 µM (inactive) |
| COc1ccc(-c2cc(=O)n(CCC#N)[nH]2)cc1 | 3.3 µM |
| CC(=O)N(CCC(Cc1ccccc1)c1ccc2c(c1)OCO2)Cc1ccccc1F (stereo unspecified) | 3.99 µM |
| CC(C)(C)c1cc[n+](C2=C([O-])c3ccccc3C(=O)/C2=N\S(=O)(=O)c2ccccc2)cc1 | 9.74 µM |
| COC(=O)C(C#N)C(c1cccnc1)c1c(C)[nH][nH]c1=O (stereo unspecified) | > 38 µM (inactive) |
| COc1cc(/C=N/NC(=O)c2ccc(F)cc2)ccc1OC(=O)c1ccco1 | > 38 µM (inactive) |
| CCC(C)NC(=O)c1c(N)n(Cc2ccc3c(c2)OCO3)c2nc3ccccc3nc12 (stereo unspecified) | 26.7 µM |
| O=S(=O)(Nc1ccc(-n2cnnn2)cc1)c1ccc(F)c(F)c1F | > 38 µM (inactive) |
| CCOC(=O)Cc1[nH]nc2c1C(c1cccc(OC)c1OC)C(C#N)=C(N)O2 (stereo unspecified) | 11.5 µM |
| O=C(NN=c1c(=O)c2ccccc2c1=O)c1ccccc1 | 8.96 µM |
| CC(C)(C)c1ccc(C(=O)Cn2cnnc2C#N)cc1 | > 38 µM (inactive) |
| O=C1CC(CSc2ccc(Cl)cc2)=NN1 | 25 µM |
| COc1cc(NCCCC(C)N)c2ncccc2c1 (stereo unspecified) | 18.1 µM |
| O=C(CCl)N1c2ccccc2OCC1c1ccccc1 (stereo unspecified) | 12.7 µM |
| Cc1nccn1-c1c([N+](=O)[O-])c(=O)n(C)c2ccccc12 | > 38 µM (inactive) |

| SMILES | AC50 |
| --- | --- |
| CCCc1[nH]nc2c1C(c1ccncc1)C(C#N)=C(N)O2 (stereo unspecified) | > 38 µM (inactive) |
| O=C1C(Cc2ccccc2)Nc2ncnc(N3CCc4ccccc4C3)c2N1Cc1ccc(Cl)cc1 (stereo unspecified) | > 38 µM (inactive) |
| COc1ccc(C2CC(c3cccs3)=NN2C(=O)CCl)cc1OC (stereo unspecified) | 3.39 µM |
| C[n+]1c2ccccc2nc2ccc(NCCO)cc21 | 10.1 µM |
| O=C(CCl)Nc1ccc(N2CCCCCC2)cc1 | 6.59 µM |
| O=C(Cc1ccccc1F)Nc1nc2ccccc2[nH]1 | > 38 µM (inactive) |
| CCN(CC)C(=O)CSc1nnc2nnc3cc(Cl)ccc3n12 | > 38 µM (inactive) |
| O=C(Nc1ccc(Cl)cc1)/C(=C/c1cccc(O)c1)c1nc2ccccc2s1 | 3.1 µM |
| CC(C)(C)c1cc(NC(=O)CCl)n(-c2ccccc2)n1 | 22.2 µM |
| COC(=O)CCSc1cc(NCCOC(C)=O)c([N+](=O)[O-])c2nonc12 | > 38 µM (inactive) |
| COc1ccc(/C=C2/SC(=S)N(CCCC(=O)Nc3cccc(O)c3)C2=O)cc1 | > 38 µM (inactive) |
| CCN(CC)C(=O)c1ccc2c(c1[N+](=O)[O-])C(=O)c1ccccc1C2=O | > 38 µM (inactive) |
| Cc1ccc(SCc2[nH]nc3c2C(c2ccc(C)o2)C(C#N)=C(N)O3)cc1 (stereo unspecified) | > 38 µM (inactive) |
| O=S(=O)(CCSc1ccccn1)c1nc2ccccc2s1 | > 38 µM (inactive) |
| O=c1cc(-c2cccc3ccccc23)[nH][nH]1 | 12.1 µM |
| Cc1nc2c(=O)n(C)c(=O)nc-2n(C)n1 | 0.0855 µM |
| CCN(CC)C(=O)c1ccc2c(c1)C1C(Cl)C(Sc3ccccc3[N+](=O)[O-])CC1C(C(=O)O)N2 (stereo unspecified) | 12.5 µM |
| O=C(CSC1=NCCS1)Nc1nc(-c2ccccc2)cs1 | 30.5 µM |
| CCOc1cc(CNc2ccc3cn[nH]c3c2)ccc1OC | 12.7 µM |
| O=C(CCl)N(Cc1ccccc1)c1ccccc1 | 4.16 µM |
| Cc1nc2ccccc2nc1N/N=C/c1ccc(O)cc1O | > 38 µM (inactive) |
| O=Nc1c(O)c2ccccc2c2ccccc12 | 2.68 µM |

| SMILES | AC50 |
| --- | --- |
| Nc1c(-c2ccccc2)c(CSc2nc3ccccc3[nH]2)nn1-c1cccc(Cl)c1 | > 38 µM (inactive) |
| O=C(NC1=C(NC2CCS(=O)(=O)C2)C(=O)c2ccccc2C1=O)c1ccccc1 (stereo unspecified) | 1.17 µM |
| O=C1C(Cl)=C(Nc2ccc(O)cc2)C(=O)c2ccccc21 | 2.7 µM |
| CC(=O)NCCn1c(SCc2ccccc2C)nc2ccccc2c1=O | > 38 µM (inactive) |
| CC(=O)N1CC2(c3ccccc3)CN(C(C)=O)CC(c3ccccc3)(C1)C2=O | > 38 µM (inactive) |
| COc1ccc(Cc2nccc3cc(OC)c(OC)cc23)cc1OC | > 38 µM (inactive) |
| CCCc1ccc(/C=C2\C(=O)c3ccccc3C(O)=C2C(=O)OCC)cc1 | 8.63 µM |
| Cc1ccc(SC(=O)c2c(C)noc2-c2cc(C)on2)cc1 | > 38 µM (inactive) |
| Cc1ccc(C(c2c(C)[nH][nH]c2=O)c2c(C)[nH][nH]c2=O)cc1 | 8.37 µM |
| O=C(O)/C=C\C(=O)Nc1ccc(Oc2ccc(Br)cc2)cc1 | 15.2 µM |
| CCc1nnc(NC(=O)c2nc(S(=O)(=O)Cc3cccc(C)c3)ncc2Cl)s1 | > 38 µM (inactive) |
| OC(CNCCC1C=Nc2ccccc21)Cn1c2ccc(Cl)cc2c2cc(Cl)ccc21 (stereo unspecified) | 8.48 µM |
| O=[N+]([O-])c1c(NCCO)cc(Sc2nc3ccccc3s2)c2nonc12 | 32.3 µM |
| COc1ccc(-c2csc(CCN3N=C(C)CC3=O)n2)cc1 | 10.1 µM |
| COc1ccc(NC(=S)NC(NC(=O)CCl)C(Cl)(Cl)Cl)c([N+](=O)[O-])c1 (stereo unspecified) | 2.67 µM |
| COc1ccc(OC)c(C2C(C#N)=C(N)Oc3c2c(C)nn3-c2ccc(C)cc2)c1 (stereo unspecified) | 31.1 µM |
| O=C1C=C(Nc2ccccc2)c2ccccc2C1=O | 5.18 µM |
| Cc1ccc(Nc2cc(C)nn2-c2nc(C)cc(=O)[nH]2)cc1 | 5.05 µM |
